According to patent publication US20220226480A1, “LIPID CONJUGATE PREPARED FROM SCAFFOLD MOIETY” (Integrated Nanotherapeutics Inc., priority 2019, published 2022):

Legend:
Raw264.7 = assay: Pro-inflammatory cytokine expression in LPS-stimulated Raw264.7 cells (qRT-PCR); format: cell-based; conditions: LNP formulation at doses equivalent to 1, 3 or 10 μM dexamethasone, 24 hours, 10 ng/mL LPS, versus control LNP
Protocol: (§1) The graph depicts the expression of the cytokines IL-10 (top), TNFα (middle) and IL-6 (bottom) after 24 hours of incubation of the cells with the above components at doses equivalent to 1, 3 or 10 μM of dexamethasone, followed by stimulation by 10 ng/mL LPS overnight. Cytokine levels were measured by qRT-PCR and data was normalized to cells treated with control LNP without drug-lipid conjugates.
as §1, with “IL-10” for “IL-10 (top), TNFα (middle) and IL-6 (bottom)”, “1” for “1, 3”
(§2) Cultured macrophage cell lines J774.2 (FIG. 8) and Raw264.7 (FIG. 9A) were incubated with immunostimulant LPS and LNP with or without ricinoleyl-dexamethasone conjugate INT-D034/INT-D035. After 24 hours, cells were harvested and were analyzed for expression of pro-Inflammatory cytokines IL1β, TNFα and IL-6. RNA was isolated from the cells and levels of pro-inflammatory cytokines ILIβ, TNFα and IL6 were determined by qRT-PCR.

J774.2 = assay: Pro-inflammatory cytokine expression in LPS-stimulated macrophage cell line J774.2 (qRT-PCR); format: cell-based; conditions: LNP formulation at doses equivalent to 1, 3 or 10 μM dexamethasone, 24 hours, 10 ng/mL LPS, versus control LNP
Protocol: as §1, with “IL-1β” for “IL-10”, “lipopolysaccharide (LPS)” for “LPS”
as §2

CD4+ T cells = assay: Mixed lymphocyte reaction (MLR) assay, BMDCs with allogeneic CD4+ T cells; format: cell-based, mice; conditions: LNP containing 10-99 mol % conjugate; BMDCs treated 48 hours, LPS 24 hours; 5:1 or 10:1 T-to-BMDC ratio; 3 days; flow cytometry
Protocol: Bone marrow derived dendritic cells (BMDCs) from C57Bl/6 male mice were first treated with LNP containing various mol % of the dexamethasone or calcitriol conjugates for 48 hours and then activated by incubation with LIPS for 24 hours. They were then harvested and mixed with CD4+ T cells isolated from Balb/cJ male mice (Jackson Laboratories) at 5:1 or 10:1 T-to-BMDC ratio.
Dexamethasone and calcitriol can tolerize antigen presenting cells (APCs). […] Bone marrow derived dendritic cells (BMDCs) from C57BI/6 male mice (Charles River) were first treated with LNP containing various mol % of dexamethasone or calcitriol conjugates for 48 hours and then activated by incubation with LPS for 24 hours. They were then harvested and mixed with CD4+ T cells isolated from Balb/cl male mice (Jackson Laboratories) at 5:1 or 10:1 T-to-BMDC ratio. The levels of T cells proliferation after 3 days were quantified using flow cytometry.

[1] = Particle size and polydispersity of LNP containing pro-drug (dynamic light scattering); format: physicochemical; set-up: Size of LNP: unit not given here
Protocol: (§3) LNPs were prepared by dissolving 1,2-Distearoyl-sn-glycero-3-phosphocholine (DSPC) or 1,2-dimyristoyl-sn-glycero-3-phosphocholine (DMPC), cholesterol and 1,2-Distearoyl-sn-glycero-3-phosphoethanolamine-Poly(ethylene glycol) (PEG-DSPE) in ethanol. DSPC, DMPC and PEG-DSPE were purchased from Avanti Polar Lipids (Alabaster, Ala.), and cholesterol was obtained from Sigma (St Louis, Mo.).
(§4) Drug-lipid-conjugates INT-D034, INT-D035, INT-D045, INT-D046, INT-D047, INT-D048, INT-D049, INT-D050, INT-D051, INT-D053, INT-D060, INT-D061, INT-D062, INT-D063, INT-D083, INT-D085, INT-D086, INT-D088 and INT-D089 (see FIG. 3 and Example 7 for structures) were dissolved in isopropanol or THF. LNP were prepared by rapidly mixing DSPC or DMPC, cholesterol, drug-lipid conjugate, and PEG-DSPE (in molar ratio of 49/40/10/1) with phosphate-buffered saline (PBS) using a cross-junction mixer. Formulations were dialyzed against PBS to remove residual ethanol. In formulation$ with more than 10 mol % drug-lipid conjugates, the amount of phospholipid or cholesterol was reduced accordingly.
(§5) The physiochemical properties of the LNPs prepared as described above were subsequently characterized. Particle size was determined by dynamic light scattering using a Malvern Zetasizer Nano ZS (Malvern, UK) following buffer exchange into phosphate-buffered saline. Number-weighted size and distribution date was used. Lipid concentrations were determined by measuring total cholesterol using the Cholesterol E enzymatic assay kit from Wako Chemicals USA (Richmond, Va.). The morphology of LNP formulations containing LD-DEX was analyzed by cryogenic-transmission electron microscopy (cryoTEM).

[2] = Encapsulation efficiency / incorporation of pro-drug in LNP; format: physicochemical; conditions: for Encapsulation Efficiency (%): LNP containing 10 mol % conjugate, primary PC-lipid DMPC; for % Entrapment: LNP formulations containing pro-drugs (10 mol %, FIG. 6A)
Protocol: as §3, §4, §5

[3] = LNP containing 10 mol % conjugate, primary PC-lipid DMPC
[4] = LNP formulations containing pro-drugs (10 mol %, FIG. 6A)
[5] = LNP, pro-drug concentration 10 %
[6] = LNP, pro-drug concentration 20 %
[7] = LNP, pro-drug concentration 30 %
[8] = LNP, pro-drug concentration 40 %
[9] = LNP, pro-drug concentration 50 %
[10] = LNP, pro-drug concentration 60 %
[11] = LNP, pro-drug concentration 80 %
[12] = LNP, pro-drug concentration 95 %
[13] = LNP, pro-drug concentration 98 %
[14] = LNP, pro-drug concentration 99 %
[15] = all LNP formulations at 0 to 99 mol % pro-drug concentration

## CCCCCC[C@H](C/C=C\CCCCCCCCOC(=O)CCC(=O)OCC(=O)[C@@]1(O)[C@H](C)C[C@H]2[C@@H]3CCC4=CC(=O)C=C[C@]4(C)[C@@]3(F)[C@@H](O)C[C@@]21C)OC(=O)CCCCC [INT-D034, 2-((8S,9R,10S,11S,13S,14S,16R,17R)-9-Fluoro-11,17-dihydroxy-10,13,16-trimethyl-3-oxo-6,7,8,9,10,11,12,13,14,15,16,17-dodecahydro-3H-cyclopenta[a]57ctadic57rene-17-yl)-2-oxoethyl ((R,Z)-12-(hexanoyloxy)57ctadic-9-en-1-yl) succinate]
Raw264.7
  levels of pro-inflammatory cytokines (IL1β, TNFα, IL-6): reduced levels of pro-inflammatory cytokines in a dose-dependent manner
J774.2
  levels of pro-inflammatory cytokines (IL1β, TNFα, IL-6): reduced levels of pro-inflammatory cytokines in a dose-dependent manner
CD4+ T cells
  allogeneic T-cell proliferation: able to suppress allogeneic T-cell proliferation
[1]; [3]
  Particle Diameter (nm): 72 nm
  Polydispersity index (PDI): 0.02
[1]; [4]
  PdI: 0.08
  Size of LNP: 70
[1]; [5]
  PdI: 0.064
  Size (nm): 48 nm
[1]; [6]
  PdI: 0.068
  Size (nm): 45 nm
[1]; [7]
  PdI: 0.082
  Size (nm): 43 nm
[1]; [8]
  PdI: 0.100
  Size (nm): 41 nm
[1]; [9]
  PdI: 0.085
  Size (nm): 32 nm
[1]; [10]
  PdI: 0.022
  Size (nm): 48 nm
[1]; [11]
  PdI: 0.025
  Size (nm): 87 nm
[1]; [12]
  PdI: 0.082
  Size (nm): 29 nm
[1]; [13]
  PdI: 0.014
  Size (nm): 52 nm
[1]; [14]
  PdI: 0.011
  Size (nm): 86 nm
[1]; [15]
  Polydispersity index (PDI): ≤ 0.1
  particle diameter: 29-87 nm
[2]
  Encapsulation Efficiency (%): 100%
  % Entrapment: 99%
[2]; [15]
  encapsulation efficiencies: high

## CCCCCCCC/C=C\CCCCCCCC(=O)O[C@@H](C/C=C\CCCCCCCCOC(=O)CCC(=O)OCC(=O)[C@@]1(O)[C@H](C)C[C@H]2[C@@H]3CCC4=CC(=O)C=C[C@]4(C)[C@@]3(F)[C@@H](O)C[C@@]21C)CCCCCC [INT-D035, 2-((8S,9R,10S,11S,13S,14S,16R,17R)-9-fluoro-11,17-dihydroxy-10,13,16-trimethyl-3-oxo-6,7,8,9,10,11,12,13,14,15,16,17-dodecahydro-3H-cyclopenta[a]phenanthren-17-yl)-2-oxoethyl ((R,Z)-12-(oleoyloxy)octadec-9-en-1-yl) succinate]
Raw264.7
  levels of pro-inflammatory cytokines (IL1β, TNFα, IL-6): reduced levels of pro-inflammatory cytokines in a dose-dependent manner
J774.2
  levels of pro-inflammatory cytokines (IL1β, TNFα, IL-6): reduced levels of pro-inflammatory cytokines in a dose-dependent manner
[1]; [3]
  Particle Diameter (nm): 67 nm
  Polydispersity index (PDI): 0.03
[1]; [4]
  PdI: 0.11
  Size of LNP: 64
[2]
  Encapsulation Efficiency (%): 100%
  % Entrapment: 99%
